Measured values from patent US7902181B2, “Compounds 010” (AstraZeneca AB, priority 2007, dated 2011).
Structures can show the parent of a compound that is named as a salt.

molecular target: Recombinant Human (rh) DPP1 (Homo sapiens, UniProt P53634); test: Fluorescence Assay for Recombinant Human (rh) DPP1; type: biochemical; conditions: rhDPP1; substrate H-Gly-Arg-AMC; pH5.0; 30 min pre-incubation, 60 min reaction at 22° C.; highest concentration 10 μM; read-out: DPP1 activity, pIC50 (converted)
Sequence (P53634 25-463): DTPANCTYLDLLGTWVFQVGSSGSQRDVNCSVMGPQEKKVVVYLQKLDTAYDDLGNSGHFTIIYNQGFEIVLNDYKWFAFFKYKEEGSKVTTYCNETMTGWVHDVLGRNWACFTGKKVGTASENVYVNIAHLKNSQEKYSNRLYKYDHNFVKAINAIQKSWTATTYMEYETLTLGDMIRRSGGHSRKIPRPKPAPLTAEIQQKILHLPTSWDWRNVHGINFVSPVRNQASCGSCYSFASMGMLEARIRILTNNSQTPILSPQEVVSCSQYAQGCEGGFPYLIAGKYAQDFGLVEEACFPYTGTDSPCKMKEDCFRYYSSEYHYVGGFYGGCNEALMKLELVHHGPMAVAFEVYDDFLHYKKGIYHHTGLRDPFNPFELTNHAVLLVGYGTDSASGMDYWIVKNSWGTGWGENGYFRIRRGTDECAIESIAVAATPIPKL
In short: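 Release of AMC from 100 μM H-Gly-Arg-AMC by rhDPP1 ([…]) in 25 mM piperazine pH 5.0, 50 mM NaCl, 5 mM DTT, 0.01% Triton X-100, 1% DMSO, 22 °C. Inhibitors (12-point half-log, top 10 μM) preincubated 30 min, reaction 60 min, fluorescence at 350/450 nm; pIC50 from 4-parameter logistic fit.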

IC50 | SMILES
3.98 nM | N#C[C@H](Cc1ccc(-c2ccc(S(=O)(=O)N3CCC3)cc2)cc1)NC(=O)[C@@H]1CCCCN1 [Example 72, (S)-N-((S)-2-(4′-(Azetidin-1-ylsulfonyl)biphenyl-4-yl)-1-cyanoethyl)piperidine-2-carboxamide Trifluoroacetate]
10 nM | N#C[C@H](Cc1ccc(-c2ccc(S(=O)(=O)NCCO)cc2)cc1)NC(=O)[C@@H]1CCCCN1 [Example 73, (S)-N-((S)-1-Cyano-2-(4′-(N-(2-hydroxyethyl)sulfamoyl)biphenyl-4-yl)ethyl)piperidine-2-carboxamide]
100 nM | CNC(=O)c1ccc(-c2ccc(C[C@@H](C#N)NC(=O)[C@@H]3CCCCN3)cc2)cc1 [Example 74, (S)-N-((S)-1-Cyano-2-(4′-(methylcarbamoyl)biphenyl-4-yl)ethyl)piperidine-2-carboxamide Trifluoroacetate]
200 nM | N#C[C@H](Cc1ccc(-c2ccc(C(=O)N3CCCC3)cc2)cc1)NC(=O)[C@@H]1CCCCN1 [Example 75, (S)-N-((S)-1-Cyano-2-(4′-(pyrrolidine-1-carbonyl)biphenyl-4-yl)ethyl)piperidine-2-carboxamide Trifluoroacetate]
158 nM | CN1CCN(C(=O)c2ccc(-c3ccc(C[C@@H](C#N)NC(=O)[C@@H]4CCCCN4)cc3)cc2)CC1 [Example 76, (S)-N-((S)-1-Cyano-2-(4′-(4-methylpiperazine-1-carbonyl)biphenyl-4-yl)ethyl)piperidine-2-carboxamide Trifluoroacetate]
31.6 nM | N#Cc1ccc(-c2ccc(C[C@@H](C#N)NC(=O)[C@@H]3CCCCN3)cn2)cc1 [Example 77, (S)-N-((S)-1-Cyano-2-(6-(4-cyanophenyl)pyridin-3-yl)ethyl)piperidine-2-carboxamide Trifluoroacetate]
100 nM | N#Cc1cccc(-c2ccc(C[C@@H](C#N)NC(=O)[C@@H]3CCCCN3)cn2)c1 [Example 78, (S)-N-((S)-1-Cyano-2-(6-(3-cyanophenyl)pyridin-3-yl)ethyl)piperidine-2-carboxamide Trifluoroacetate]
316 nM | N#C[C@H](Cc1ccc(-c2ccccc2O)nc1)NC(=O)[C@@H]1CCCCN1 [Example 79, (S)-N-((S)-1-Cyano-2-(6-(2-hydroxyphenyl)pyridin-3-yl)ethyl)piperidine-2-carboxamide]
31.6 nM | CN(C)S(=O)(=O)c1ccc(-c2ccc(C[C@@H](C#N)NC(=O)[C@@H]3CCCCN3)cn2)cc1 [Example 80, (S)-N-((S)-1-Cyano-2-(6-(4-(N,N-dimethylsulfamoyl)phenyl)pyridin-3-yl)ethyl)piperidine-2-carboxamide Trifluoroacetate]
5.01 nM | N#C[C@H](Cc1ccc(-c2ccc(C(F)(F)F)cc2)cc1)NC(=O)[C@@H]1CCCCN1 [Example 82, (S)-N-((S)-1-Cyano-2-(4′-(trifluoromethyl)biphenyl-4-yl)ethyl)piperidine-2-carboxamide Trifluoroacetate]
200 nM | N#C[C@H](Cc1ccc(-c2cccc(C(=O)N3CCCCC3)c2)cc1)NC(=O)[C@@H]1CCCCN1 [Example 83, (S)-N-((S)-1-Cyano-2-(3′-(piperidine-1-carbonyl)biphenyl-4-yl)ethyl)piperidine-2-carboxamide Trifluoroacetate]
25.1 nM | N#C[C@H](Cc1ccc(-c2cccc(C(=O)Nc3nccs3)c2)cc1)NC(=O)[C@@H]1CCCCN1 [Example 84, (S)-N-((S)-1-Cyano-2-(3′-(thiazol-2-ylcarbamoyl)biphenyl-4-yl)ethyl)piperidine-2-carboxamide Trifluoroacetate]
126 nM | N#CCCNC(=O)c1cccc(-c2ccc(C[C@@H](C#N)NC(=O)[C@@H]3CCCCN3)cc2)c1 [Example 85, (S)-N-((S)-1-Cyano-2-(3′-(2-cyanoethylcarbamoyl)biphenyl-4-yl)ethyl)piperidine-2-carboxamide]
79.4 nM | N#C[C@H](Cc1ccc(-c2cccc(CC(N)=O)c2)cc1)NC(=O)[C@@H]1CCCCN1 [Example 86, (S)-N-((S)-2-(3′-(2-amino-2-oxoethyl)biphenyl-4-yl)-1-cyanoethyl)piperidine-2-carboxamide Trifluoroacetate]
50.1 nM | CN(C)S(=O)(=O)c1cccc(-c2ccc(C[C@@H](C#N)NC(=O)[C@@H]3CCCCN3)cc2)c1 [Example 87, (S)-N-((S)-1-Cyano-2-(3′-(N,N-dimethylsulfamoyl)biphenyl-4-yl)ethyl)piperidine-2-carboxamide Trifluoroacetate]
63.1 nM | N#C[C@H](Cc1ccc(-c2cccc(S(=O)(=O)N3CCCC3)c2)cc1)NC(=O)[C@@H]1CCCCN1 [Example 88, (S)-N-((S)-1-Cyano-2-(3′-(pyrrolidin-1-ylsulfonyl)biphenyl-4-yl)ethyl)piperidine-2-carboxamide Trifluoroacetate]
63.1 nM | CS(=O)(=O)NCc1cccc(-c2ccc(C[C@@H](C#N)NC(=O)[C@@H]3CCCCN3)cc2)c1 [Example 89, (S)-N-((S)-1-Cyano-2-(3′-(methylsulfonamidomethyl)biphenyl-4-yl)ethyl)piperidine-2-carboxamide Trifluoroacetate]
126 nM | CC(=O)NCc1cccc(-c2ccc(C[C@@H](C#N)NC(=O)[C@@H]3CCCCN3)cc2)c1 [Example 90, (S)-N-((S)-2-(3′-(Acetamidomethyl)biphenyl-4-yl)-1-cyanoethyl)-piperidine-2-carboxamide Trifluoroacetate]
12.6 nM | N#CC1CCN(S(=O)(=O)c2ccc(-c3ccc(C[C@@H](C#N)NC(=O)[C@@H]4CCCCN4)cc3)cc2)CC1 [Example 91, (S)-N-((S)-1-Cyano-2-(4′-(4-cyanopiperidin-1-ylsulfonyl)biphenyl-4-yl)ethyl)piperidine-2-carboxamide Trifluoroacetate]
3.16 nM | CN1CCN(S(=O)(=O)c2ccc(-c3ccc(C[C@@H](C#N)NC(=O)[C@@H]4CCCCN4)cc3)cc2)CC1 [Example 95, (S)-N-((S)-1-Cyano-2-(4′-(4-methylpiperazin-1-ylsulfonyl)biphenyl-4-yl)ethyl)piperidine-2-carboxamide Trifluoroacetate]
7.94 nM | Cn1c(=O)oc2ccc(-c3ccc(C[C@@H](C#N)NC(=O)[C@@H]4CCCCN4)cc3)cc21 [Example 96, (S)-N-((S)-1-Cyano-2-(4-(3-methyl-2-oxo-2,3-dihydrobenzo[d]oxazol-5-yl)phenyl)ethyl)piperidine-2-carboxamide]
15.8 nM | COCCn1c(=O)oc2ccc(-c3ccc(C[C@@H](C#N)NC(=O)[C@@H]4CCCCN4)cc3)cc21 [Example 97, (S)-N-((S)-1-Cyano-2-(4-(3-(2-methoxyethyl)-2-oxo-2,3-dihydrobenzo[d]-oxazol-5-yl)phenyl)ethyl)piperidine-2-carboxamide]
50.1 nM | Cn1c(=O)sc2cc(-c3ccc(C[C@@H](C#N)NC(=O)[C@@H]4CCCCN4)cc3)ccc21 [Example 98, (S)-N-((S)-1-Cyano-2-(4-(3-methyl-2-oxo-2,3-dihydrobenzo[d]thiazol-6-yl)phenyl)ethyl)piperidine-2-carboxamide]
63.1 nM | N#C[C@H](Cc1ccc(-c2ccc3c(c2)sc(=O)n3CCO)cc1)NC(=O)[C@@H]1CCCCN1 [Example 99, (S)-N-((S)-1-Cyano-2-(4-(3-(2-hydroxyethyl)-2-oxo-2,3-dihydrobenzo[d]thiazol-6-yl)phenyl)ethyl)piperidine-2-carboxamide]
